In patent publication US20230365563A1, “QUINAZOLINE COMPOUND AND APPLICATION THEREOF” (SHANGHAI PHARMACEUTICALS HOLDING CO., LTD., priority 2020, published 2023):
Counter-ions that a name gives are not always drawn.

Molecular target: T1, KRAS-G12D and SOS1 (Homo sapiens, UniProt P01116, G12D)
T1 construct: purchased
Test: Inhibition of KRAS-G12D/SOS1 binding (Cisbio binding kit, 665/615 ratio), Effect Embodiment A
Settings: read-out: GTP-KRAS-G12D:SOS1 IC50
How it was run: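 Duplicate wells received an eleven-point, threefold compound titration whose top point was the stock solution; final DMSO 1%.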

T1 sequence (P01116 1-188 isoform P01116-2 G12D): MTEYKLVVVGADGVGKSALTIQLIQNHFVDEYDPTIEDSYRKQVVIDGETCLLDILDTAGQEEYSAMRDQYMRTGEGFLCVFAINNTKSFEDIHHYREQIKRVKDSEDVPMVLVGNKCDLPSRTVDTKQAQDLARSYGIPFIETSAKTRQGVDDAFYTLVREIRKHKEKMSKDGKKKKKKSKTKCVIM

| Compound | IC50 |
| --- | --- |
| CN1CCOC[C@H]1COc1nc(N2CC3CCC(C2)N3)c2cc(Cl)c(-c3cc(O)cc4ccccc34)c(F)c2n1 (single isomer, unassigned) [Compound 122, 4-((S or R)-4-((1R,5S)-3,8-diazabicyclo[3.2.1]octan-3-yl)-6-chloro-8-fluoro-2-((S)-4-methylmorpholin-3-yl)methoxy)quinazolin-7-yl)naphthalen-2-ol dihydrochloride] | 219 nM |
| CC(C)(CCOc1nc(N2CC3CCC(C2)N3)c2cc(Cl)c(-c3cc(O)cc4ccccc34)c(F)c2n1)N1CCCC1 (single isomer, unassigned) [Compound 123, 4-((S or R)-4-((1R,5S)-3,8-diazabicyclo[3.2.1]octan-3-yl)-6-chloro-8-fluoro-2-(3-methyl-3-(pyrrolidin-1-yl)butoxy)quinazolin-7-yl)naphthalen-2-ol dihydrochloride] | 106 nM |
| CCCN(C)CCOc1nc(N2C[C@H]3CC[C@@H](C2)N3)c2cc(Cl)c(-c3cc(O)cc4ccccc34)c(F)c2n1 (single isomer, unassigned) [Compound 126, (S or R)-4-(4-((1R,5S)-3,8-diazabicyclo[3.2.1]octan-3-yl)-6-chloro-8-fluoro-2-(2-(methyl(propyl)amino)ethoxy)quinazolin-7-yl)naphthalen-2-ol dihydrochloride] | 134 nM |
| CN(C)C1CN(c2nc(C3(C(N)=O)CN(C(=N)N)C3)c3cc(Cl)c(-c4cc(O)cc5ccccc45)c(F)c3n2)C1 (single isomer, unassigned) [Compound 145, (R or S)-1-Carbamimidoyl-3-(6-chloro-2-(3-(dimethylamino)azetidin-1-yl)-8-fluoro-7-(3-hydroxynaphthalen-1-yl)quinazolin-4-yl)azetidin-3-carboxamide ditrifluoroacetate] | 5940 nM |
| CN(C)C1CN(c2nc(C3CN(C(=N)N)C3)c3cc(Cl)c(-c4cc(O)cc5ccccc45)c(F)c3n2)C1 (single isomer, unassigned) [Compound 146] | 6930 nM |
| CN(C)CCCSc1nc(N2C[C@H]3CC[C@@H](C2)N3)c2cc(Cl)c(-c3cc(O)cc4ccccc34)c(F)c2n1 (single isomer, unassigned) [Compound 147, (S or R) 4-(4-((1R,5S)-3,8-diazabicyclo[3.2.1]octan-3-yl)-6-chloro-2-((3-(dimethylamino)propyl)thio)-8-fluoroquinazolin-7-yl)naphthalen-2-ol dihydrochloride] | 605 nM |
| CN1CCC[C@H]1COc1nc(N2C3CCC2C2CCC3N2)c2cc(Cl)c(-c3cc(O)cc4ccccc34)c(F)c2n1 (single isomer, unassigned) [Compound 152a, 4-((S or R)-6-chloro-8-fluoro-2-((S)-1-methylpyrrolidin-2-yl)methoxy)-4-((1R,2R,5S,6S)-9,10-diazatricyclo[4.2.1.1^2,5]decan-9-yl)quinazolin-7-yl)naphthalen-2-ol dihydrochloride] | 1050 nM |
| CN1CCC[C@H]1COc1nc(N2CCN[C@@H](CC#N)C2)c2cc(Cl)c(-c3cc(O)cc4ccccc34)c(F)c2n1 (single isomer, unassigned) [Compound 153a, 2-((S)-4-((S or R)-6-chloro-8-fluoro-7-(3-hydroxynaphthalen-1-yl)-2-((S)-1-methylpyrrolidin-2-yl)methoxy)quinazolin-4-yl)piperazin-2-yl)acetonitrile] | 965 nM |
| CN(C)CCCCc1nc(N2CC3CCC(C2)N3)c2cc(Cl)c(-c3cc(O)cc4ccccc34)c(F)c2n1 (single isomer, unassigned) [Compound 154a, 4-((S or R)-4-((1R,5S)-3,8-diazabicyclo[3.2.1]octan-3-yl)-6-chloro-2-(4-(dimethylamino)butyl)-8-fluoroquinazolin-7-yl)naphthalen-2-ol dihydrochloride] | 204 nM |
| CN1CCC[C@H]1COc1nc(N2CC3CCC(C2)N3C(=O)CN)c2cc(Cl)c(-c3cc(O)cc4ccccc34)c(F)c2n1 (single isomer, unassigned) [Compound 156, 2-Amino-1-((1R,5S)-3-((S or R)-6-chloro-8-fluoro-7-(3-hydroxynaphthalen-1-yl)-2-((S)-1-methylpyrrolidin-2-yl)methoxy)quinazin-4-yl)-3,8-diazacyclo[3.2.1]octan-8-yl)ethan-1-one dihydrochloride] | 621 nM |
| CN1CCC[C@H]1COc1nc(N2CCN(C(=O)CCN)[C@@H](CC#N)C2)c2cc(Cl)c(-c3cc(O)cc4ccccc34)c(F)c2n1 (single isomer, unassigned) [Compound 157, 2-((S)-1-(3-aminopropionyl)-4-((S or R)-6-chloro-8-fluoro-7-(3-hydroxynaphthalen-1-yl)-2-((S)-1-methylpyrrolidine-2-yl)methoxy)quinazolin-4-yl)-piperazin-2-yl)acetonitrile ditrifluoroacetate] | 316 nM |
| CN1CCC[C@H]1COc1nc(N2CC3CCC(C2)N3)c2cc(F)c(-c3cc(O)cc4ccccc34)c(F)c2n1 (single isomer, unassigned) [Compound 160b, (S or R) 4-(4-((1R,5S)-3,8-diazabicyclo[3.2.1]octan-3-yl)-6,8-difluoro-2-((S)-1-methylpyrrolidin-2-yl)methoxy)quinazolin-7-yl)naphthalen-2-ol dihydrochloride] | 117 nM |
| CN(C)C12CC(c3nc(N4CC5CCC(C4)N5)c4cc(Cl)c(-c5cc(O)cc6ccccc56)c(F)c4n3)(C1)C2 (single isomer, unassigned) [Compound 162a, 4-((S or R)-4-((1R,5S)-3,8-diazabicyclo[3.2.1]octan-3-yl)-6-chloro-2-(3-(dimethylamino)bicyclo[1.1.1]pentan-1-yl)-8-fluoroquinazolin-7-yl)naphthalen-2-ol dihydrochloride] | 678 nM |
| Oc1cc(-c2c(Cl)cc3c(N4CC5CCC(C4)N5)nc(OCC(F)CN4C5CCC4COC5)nc3c2F)c2ccccc2c1 (single isomer, unassigned) [Compound 179a, ((4R or 4S)-4-(2-((2R or 2S)-3-(3-oxa-8-azabicyclo[3.2.1]octan-8-yl)-2-fluoropropoxy)-4-((1R,5S)-3,8-diazabicyclo[3.2.1]octan-3-yl)-6-chloro-8-fluoroquinazolin-7-yl)naphthalen-2-ol diformate] | 276 nM |
| CCCN(C)CC1(COc2nc(N3C[C@H]4CC[C@@H](C3)N4)c3cc(Cl)c(-c4cc(O)cc5ccccc45)c(F)c3n2)CC1 (single isomer, unassigned) [Compound 185, (R or S)-4-(4-((1R,5S)-3,8-diazabicyclo[3.2.1]octan-3-yl)-6-chloro-8-fluoro-2-((1-((methyl(propyl)amino)methyl)cyclopropyl)methoxy)quinazolin-7-yl)naphthalen-2-ol diformate] | 387 nM |
| CN1CCC[C@H]1C1(Oc2nc(N3CC4CCC(C3)N4)c3cc(Cl)c(-c4cc(O)cc5ccccc45)c(F)c3n2)CC1 (single isomer, unassigned) [Compound 189, 4-((R or S)-4-((1R,5S)-3,8-diazabicyclo[3.2.1]octan-3-yl)-6-chloro-8-fluoro-2-(1-((S)-1-methylpyrrolidin-2-yl)cyclopropoxy)quinazolin-7-yl)naphthalen-2-ol diformate] | 8320 nM |
| CN1CCC[C@H]1COc1nc(N2CC3CCC(C2)N3)c2cc(Cl)c(-c3c(F)c(O)cc4ccccc34)c(F)c2n1 (single isomer, unassigned) [Compound 195a, (R or S)-4-(4-((1R,5S)-3,8-diazabicyclo[3.2.1]octan-3-yl)-6-chloro-8-fluoro-2-((S)-1-methylpyrrolidin-2-yl)methoxy)quinazolin-7-yl)-3-fluoronaphthalen-2-ol diformate] | 8770 nM |
| Oc1cc(Cl)c(C2CC2)c(-c2c(Cl)cc3c(N4CC5CCC(C4)N5)nc(OCCCN4C5CCC4COC5)nc3c2F)c1 (single isomer, unassigned) [Compound 197b, 3-((7S or 7R)-2-(3-(3-oxa-8-azabicyclo[3.2.1]octan-8-yl)propoxy)-4-((1R,5S)-3,8-diazabicyclo[3.2.1]octan-3-yl)-6-chloro-8-fluoroquinazolin-7-yl)-5-chloro-4-cyclopropylphenol formate] | 2710 nM |
| O=S1(=O)CC2CCC(C1)N2CCCOc1nc(N2CC3CCC(C2)N3)c2cc(Cl)c(-c3cc(O)cc4ccccc34)c(F)c2n1 (single isomer, unassigned) [Compound 212, 8-(3-((S or R)-4-((1R,5S)-3,8-diazabicyclo[3.2.1]octan-3-yl)-6-chloro-8-fluoro-7-(3-hydroxynaphthalen-1-yl)quinazolin-2-yl)oxy)propyl)-3-thio-8-azabicyclo[3.2.1]octane-3,3-dioxide formate] | 556 nM |
| N=[S+]1([O-])CC2CCC(C1)N2CCCOc1nc(N2CC3CCC(C2)N3)c2cc(Cl)c(-c3cc(O)cc4ccccc34)c(F)c2n1 (single isomer, unassigned) [Compound 213a, (1R,3S or 3R,5S)-8-(3-((4-((1R,5S)-3,8-diazabicyclo[3.2.1]octan-3-yl)-6-chloro-8-fluoro-7-(3-hydroxynaphthalen-1-yl)quinazolin-2-yl)oxy)propyl)-3-imino-3λ^6-thia-8-azabicyclo[3.2.1]octane 3-oxide formate] | 514 nM |
| N=[S+]1([O-])CC2CCC(C1)N2CCCOc1nc(N2CC3CCC(C2)N3)c2cc(Cl)c(-c3cc(O)cc4ccccc34)c(F)c2n1 (single isomer, unassigned) [Compound 213b, (1R,3R or 3S,5S)-8-(3-((4-((1R,5S)-3,8-diazabicyclo[3.2.1]octan-3-yl)-6-chloro-8-fluoro-7-(3-hydroxynaphthalen-1-yl)quinazolin-2-yl)oxy)propyl)-3-imino-3λ^6-thia-8-azabicyclo[3.2.1]octane 3-oxide formate] | 673 nM |
| Oc1cc(-c2c(Cl)cc3c(N4CC5CCC(C4)N5)nc(OC[C@@]45CCCN4C[C@H](F)C5)nc3c2F)c2c(F)c(F)ccc2c1 (single isomer, unassigned) [Compound 214b, 4-(R or S)-4-((1R,5S)-3,8-diazabicyclo[3.2.1]octane-3-yl)-6-chloro-8-fluoro-2-((2R,7aS)-2-fluorotetrahydro-1H-pyrrolidin-7a(5H)-yl) methoxy) quinazolin-7-yl)-5,6-difluoronaphthalen-2-ol diformate] | 2660 nM |
